Key:
[1] = system: PNN^+HEK cells; assay: Removal of PNNs in vitro in PNN+HEK cell model (WFA staining); assay type: cell-based, human
Excerpt: A previously developed human embryonic kidney 293T (HEK) cell model, engineered to express the essential ECM components (hyaluronan synthase 3 (HAS-3) and HAPLN-1) required to induce the formation of a pericellular PNN-like structure (PNN^+HEK cells) (Kwok et al., 2010), was used to investigate the efficacy of PNNi in removing PNNs in vitro (FIG. 9A-I).

[2] = system: mouse; settings: in vivo, po; cited from earlier work
[3] = system: rat; settings: in vivo, po; cited from earlier work
[4] = system: acute contusive spinal cord injury; assay: Basso, Beattie and Bresnahan (BBB) HL locomotor open field test after moderate T9 contusion injury; assay type: in vivo, rat; settings: daily oral treatment, 5 weeks after injury, vehicle ~10
Experimental: Adult female Lister-hooded rats (200-250 g) were obtained from Charles River Laboratories (Canterbury, UK). Rats were housed in pairs in Central Biomedical Services (University of Leeds, UK) in a temperature-controlled environment in (20±1° C.), with a 12 hr light/dark cycle (lights on at 07:00). All procedures and experiments complied with the UK Animals (Scientific Procedures) Act 1986. Using isofluorane as an anaesthetic (5% in 02 for induction and 1-2% in 02 for the duration of the procedure), animals were shaved and sterilised. Vertebral segments T7-13 were exposed and a dorsal laminectomy was performed at T8. Vertebral levels T7 and T8 were stabilised whilst an Infinite Horizon impactor (Precision Systems and Instrumentation, LLC, Fairfax Station, Va.) was used to provide a 200 kdyn Cx (moderate injury) at the level of T9. Muscles were sutured and the skin was closed with autoclips. Analgesia ([…] Buprenorphine; 0.015 mg/kg; Henry Schein Animal Health, Dumfries, UK) and antibiotics (Baytril enrofloxacin; 2.5 mg/kg; Henry Schein Animal Heath, Dumfries, UK) were given via subcutaneous injection immediately post-surgery and for three days following surgery. […] HL locomotor ability was assessed at various time points throughout the acute SCI paradigm using the BBB HL locomotor scale. […] Each BBB test was simultaneously assessed by two individuals. […]

[5] = system: HL sensory function after spinal cord injury; assay: Von Frey assay (50% withdrawal threshold) in spinal cord injured rats; assay type: in vivo, rat
Experimental: Changes to HL sensory function was assessed using von Frey methodologies to look for hyperalgesia and neuropathic pain. Four animals at a time were acclimatised to Perspex cages with a wire mesh bottom (FIG. 3) for approximately fifteen to twenty minutes before the test began and until general movement and grooming activities stopped. Von Frey filaments (Touch Test™ Sensory Evaluator Kit of 20; #39337500; Leica Biosystems, Milton Keynes, England FIG. 3C) were depressed through the mesh-bottomed cage against the more sensitive plantar arch of the HL footpads where withdrawal of the limb was counted as a positive result. Flinching was also seen as a positive response whereas walking was an ambiguous response requiring retesting after an appropriate delay. The left hindpaw and right hindpaw of all animals were performed in series to provide a sufficient interval between stimuli.

[6] = system: locomotor function of intact rats; assay: BBB open field locomotor testing in intact rats after ten days of oral PNNi; assay type: in vivo, rat; settings: short-term treatment
Experimental: HL locomotor ability was assessed at various time points throughout the acute SCI paradigm using the BBB HL locomotor scale. BBB testing was carried out using an open locomotor field (custom-built Perspex O-ring: diameter 80 cm, height 30 cm) where animals were placed for a duration of 4 minutes (FIG. 2). Each BBB test was simultaneously assessed by two individuals. The resulting scores were pooled and averaged for objectivity. BBB testing assesses HL motor function using a ranking scale from 0-21. Animals are ranked into three broad categories based on their BBB score: early phase (score of 0-7) presenting little to no limb movement; intermediate stage (score of 8-13) with bouts of uncoordinated stepping; and the late stage (score of 14-21) presenting with FL and HL coordination and stability (Basso et al., 1995). Following injury, BBBs were then carried out at 1 DPI to confirm injury and then weekly from 7 DPI. If animals also received rehabilitative training, BBBs were carried out beforehand.

[7] = system: rats; settings: cited from earlier work

## Cc1cc(=O)oc2cc(O)ccc12 [PNNi, 4-methylumbelliferone]
[1]; two days of treatment, 0.5 mM or 1.0 mM
  WFA-positive staining removed: 86.4±4.47%
[1]; within three days post-treatment
  staining intensity recovered, of baseline lectin binding: 43.6±14.6%
[2]
  lethal dose: 7500 mg/kg
[3]
  lethal dose: 6200 mg/kg
[4]
  BBB score: ~15 scores
[5]; 8 week PNNi with or without training, 9 and 12 WPI
  L-R average 50% withdrawal threshold, plantar hindpaws: did not show hyperalgesia
[5]; treatment groups after T9 contusion injury, n=11
  tactile sensitivity using von Frey hair test: did not show any difference
[6]
  BBB hindlimb scale score: 21
[7]; oral, rats
  maximum tolerated dose: 6000 mg/kg
[7]; rat, in vivo
  dose tolerated in rats: at least 200 mg/kg/day
[7]; rats, 200 mg/kg/day and 40 mg/kg/day for three months
  mortality in the chronic study: No mortality was reported
